Results on two compounds are retold here after article PMC10377541, “Further Characterization of Fungal Halogenase RadH and Its Homologs” (Biomolecules, 2023).

The target in one assay is T1, E3R0Q3 (Colletotrichum graminicola, UniProt E3R0Q3).
T1 construct: gene GLRG_11837; heterologously expressed in E. coli; RadH homolog
In words: HPLC-MS chlorination assay. It counts as biochemical. The following applies: FAD, Fre, NADH, MgCl2, Tris HCl pH 7.4, 18 h.

In another assay the target is T2, A0A066XG69 (Colletotrichum sublineola, UniProt A0A066XG69).
T2 construct: gene CSUB01_08252; heterologously expressed in E. coli; RadH homolog
T2 sequence (A0A066XG69 1-512): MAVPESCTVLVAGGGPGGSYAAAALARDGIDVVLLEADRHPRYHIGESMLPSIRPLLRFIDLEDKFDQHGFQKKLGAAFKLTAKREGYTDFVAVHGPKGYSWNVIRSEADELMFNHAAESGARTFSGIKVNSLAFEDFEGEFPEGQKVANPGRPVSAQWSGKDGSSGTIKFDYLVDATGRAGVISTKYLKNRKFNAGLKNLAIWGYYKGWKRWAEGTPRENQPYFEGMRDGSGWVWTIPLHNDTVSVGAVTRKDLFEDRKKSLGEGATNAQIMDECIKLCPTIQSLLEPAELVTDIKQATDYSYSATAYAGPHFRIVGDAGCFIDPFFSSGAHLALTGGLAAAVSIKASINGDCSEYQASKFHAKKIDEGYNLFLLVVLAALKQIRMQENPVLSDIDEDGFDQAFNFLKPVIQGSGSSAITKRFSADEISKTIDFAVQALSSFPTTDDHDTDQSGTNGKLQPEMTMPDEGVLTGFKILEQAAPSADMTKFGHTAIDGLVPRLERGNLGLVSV
In words: HPLC-MS chlorination assay. It counts as biochemical. The following applies: FAD, Fre, NADH, MgCl2, Tris HCl pH 7.4, 18 h.

The target of another assay is T3, RadH (Floropilus chiversii, UniProt C5H881).
T3 construct: codon-optimized synthetic gene in pET28, expressed in E. coli T7 Express, Ni-NTA purified; two monomers in the asymmetric unit
T3 sequence (C5H881 whole entry): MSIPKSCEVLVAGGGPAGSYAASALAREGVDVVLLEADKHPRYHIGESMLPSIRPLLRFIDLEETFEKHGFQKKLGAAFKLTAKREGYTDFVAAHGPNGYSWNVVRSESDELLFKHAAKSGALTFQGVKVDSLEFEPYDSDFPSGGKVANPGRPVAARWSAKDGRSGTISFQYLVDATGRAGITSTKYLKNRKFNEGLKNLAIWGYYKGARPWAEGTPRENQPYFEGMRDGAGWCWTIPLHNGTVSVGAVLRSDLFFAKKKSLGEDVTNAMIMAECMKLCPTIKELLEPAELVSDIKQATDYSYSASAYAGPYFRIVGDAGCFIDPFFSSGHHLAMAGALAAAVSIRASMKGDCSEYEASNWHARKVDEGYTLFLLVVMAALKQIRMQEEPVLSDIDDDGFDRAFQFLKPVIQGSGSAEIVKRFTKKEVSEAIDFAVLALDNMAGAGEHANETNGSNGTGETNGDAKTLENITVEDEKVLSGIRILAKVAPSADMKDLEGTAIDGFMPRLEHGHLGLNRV
Put plainly: X-ray crystallography, […] Å. The following applies: FAD bound in the flavin-binding domain; chlorine atom in adjacent space; crystals pH 6.5.

T1 sequence (E3R0Q3 1-512): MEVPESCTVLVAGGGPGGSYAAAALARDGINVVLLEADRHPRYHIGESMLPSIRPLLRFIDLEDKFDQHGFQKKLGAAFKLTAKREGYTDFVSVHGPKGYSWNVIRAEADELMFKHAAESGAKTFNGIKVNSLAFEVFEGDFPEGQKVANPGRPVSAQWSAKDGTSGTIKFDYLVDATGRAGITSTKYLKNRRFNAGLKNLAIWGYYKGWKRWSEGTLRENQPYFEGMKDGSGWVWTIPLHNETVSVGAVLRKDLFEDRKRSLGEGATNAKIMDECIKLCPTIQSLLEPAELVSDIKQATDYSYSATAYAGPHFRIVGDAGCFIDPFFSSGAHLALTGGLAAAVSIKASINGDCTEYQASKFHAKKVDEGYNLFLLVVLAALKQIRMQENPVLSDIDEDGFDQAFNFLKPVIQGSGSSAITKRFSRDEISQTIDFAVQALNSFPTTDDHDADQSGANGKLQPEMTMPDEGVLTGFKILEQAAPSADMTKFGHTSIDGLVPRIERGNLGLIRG

For `Oc1ccc2cnccc2c1` [6-hydroxyisoquinoline], the HPLC-MS chlorination assay entry on E3R0Q3 was “E3R0Q3 (Colletotrichum graminicola) and A0A066XG69 (Colletotrichum sublineola), showed activity with standard 6-hydroxyhisoquinoline substrates”; on A0A066XG69, “A0A066XG69 demonstrated higher conversion compared to RadH or E3R0Q3”.

On to `Cc1cc2nc3c(=O)[nH]c(=O)nc-3n(C[C@H](O)[C@H](O)[C@H](O)COP(=O)(O)OP(=O)(O)OC[C@H]3O[C@@H](n4cnc5c(N)ncnc54)[C@H](O)[C@@H]3O)c2cc1C` [FAD], for which the “X-ray crystallography, 2.4 Å” value at RadH is “Each monomer consists of a conserved Flavin-binding domain with FAD bound”.
